What was measured:
Type in all cases: in vivo
[1] = tested on: Barnyardgrass (Echinochloa crus-gali); assay: Pre-emergence test of MBI-005, lab (Example 12); settings: pre-emergent; further: ranges in brackets are in %
Experimental: (§1) To further describe the spectrum of pre-emergence activity, tests were conducted in laboratory and field conditions. In laboratory testing, 35 seeds were placed on a ring of blotter paper inside a 3 cm petri dish and supplied with 4 ml of MBI-005 (≦0.1 mg MBI-005/ml). Water was used as a negative control and oryzalin applied as a positive control. Petri dishes were randomly placed in a growth room at 25° C. and 50% RH. Treatments were replicated three times and germinated seeds were counted 7 and 14 days after application; water was added as necessary to maintain moisture levels inside each petri dish.

[2] = tested on: Clover (Trifolium repens); assay: Pre-emergence test of MBI-005, lab (Example 12); settings: pre-emergent; further: ranges in brackets are in %
Experimental: as §1

[3] = tested on: Bristlegrass/Foxtail (Setaria viridis); assay: Pre-emergence test of MBI-005, lab (Example 12); settings: pre-emergent; further: ranges in brackets are in %
Experimental: as §1

[4] = tested on: Ryegrass (Lolium perenne); assay: Pre-emergence test of MBI-005, lab (Example 12); settings: pre-emergent; further: ranges in brackets are in %
Experimental: as §1

[5] = tested on: Buckhorn plantain (Plantago lanceolata); assay: Pre-emergence test of MBI-005, lab (Example 12); settings: pre-emergent; further: ranges in brackets are in %
Experimental: as §1

[6] = tested on: Mustard (Brassica juncea); assay: Pre-emergence test of MBI-005, lab (Example 12); settings: pre-emergent
Experimental: as §1

[7] = tested on: Lambsquarters (Chenopodium album); assay: Pre-emergence test of MBI-005, lab (Example 12); settings: pre-emergent; further: ranges in brackets are in %
Experimental: as §1

[8] = tested on: Ragweed (Ambrosia artemisifolia); assay: Pre-emergence test of MBI-005, lab (Example 12); settings: pre-emergent; further: ranges in brackets are in %
Experimental: as §1

[9] = tested on: Late watergrass (R) (Echinochloa phyllopogon); assay: Pre-emergence test of MBI-005, lab (Example 12); settings: pre-emergent, herbicide resistant population; further: ranges in brackets are in %
Experimental: as §1

[10] = tested on: Palmer pigweed (R) (Amaranthus palmerii); assay: Pre-emergence test of MBI-005, lab (Example 12); settings: pre-emergent, herbicide resistant population; further: ranges in brackets are in %
Experimental: as §1

[11] = tested on: Bearded Sprangletop (Leptochloa fascicularis); assay: Pre-emergence test of MBI-005, lab (Example 12); settings: pre-emergent; further: ranges in brackets are in %
Experimental: as §1

[12] = tested on: Canarygrass (Phalaris minior); assay: Pre-emergence test of MBI-005, lab (Example 12); settings: pre-emergent; further: ranges in brackets are in %
Experimental: as §1

[13] = tested on: Horseweed (R) (Conyza canadensis); assay: Pre-emergence test of MBI-005, lab (Example 12); settings: pre-emergent, herbicide resistant population; further: ranges in brackets are in %
Experimental: as §1

[14] = tested on: Fall Panicum (Panicum dichotomiflorum); assay: Pre-emergence test of MBI-005, lab (Example 12); settings: pre-emergent; further: ranges in brackets are in %
Experimental: as §1

[15] = tested on: Black nightshade (Solanum nigrum); assay: Pre-emergence test of MBI-005, lab (Example 12); settings: pre-emergent; further: ranges in brackets are in %
Experimental: as §1

[16] = tested on: small-flower umbrella sedge; assay: Field study, 1-sq foot plots (Example 5); settings: 14 days after treatment
Experimental: (§2) The combined effect of thaxtomin A and two commercial herbicides (Bipyribac-sodium formulated as Regiment and Lemongrass oil formulated as GreenMatch EX) on small-flower umbrella sedge and watergrass is tested in a field study using small (1-sq foot) plots. All single product treatments and tank mix combinations were sprayed at 57 gal per acre. Means in each column marked with the same letter in Table 2 are not statistically different from each other at p<0.05

watergrass = assay: Field study, 1-sq foot plots (Example 5); settings: 14 days after treatment
Experimental: as §2

[17] = tested on: annual grasses and broadleaves, some perennials; assay: Pre-emergence spectrum of MBI-005, overall (Example 12); settings: some perennials (Table 12)
Experimental: as §1
In field testing, field soil containing weed seeds were treated with 38.2 L MBI-005/ha at a spray volume of 280 L/ha using a CO2 sprayer with flat fan nozzles. Treatments, including water as the negative control and Gallery as the positive control, were replicated four times and applied twice at a four week interval. Treatments were evaluated visually as % cover and above-ground fresh weights per container were taken.

[18] = tested on: Hairy galinsoga (Galinsoga ciliata); assay: Post-emergence test of MBI-005, field (Example 13)
Experimental: (§3) In field testing, field soil containing weeds at the 1-5 leaf stage were treated with 38.2 L MBI-005/ha at a spray volume of 374 L/ha. Treatments, including water as the negative control and WeedBGon or Preen Broadleaf as the positive control, were replicated four times and applied twice at a four week interval. The positive control on Late watergrass, Ricefield Bulrush, Smallflower sedge and Arrowhead was an herbicide containing as active ingredient 2,4-D and an organosilicone surfactant was added to MBI-005. Treatments were assessed for % control and % ground cover.

[19] = tested on: Henbit (Lamimum amplexicaule); assay: Post-emergence test of MBI-005, field (Example 13)
Experimental: as §3

Bluegrass (Poa annua) = assay: Post-emergence test of MBI-005, field (Example 13)
Experimental: as §3

[20] = tested on: Common groundsel (Senecio vulgaris); assay: Post-emergence test of MBI-005, field (Example 13)
Experimental: as §3

[21] = tested on: Arrowhead (Sagittaria montevidensis); assay: Post-emergence test of MBI-005, field (Example 13)
Experimental: as §3

[22] = tested on: Marsh watercress (Rorippa islandica); assay: Post-emergence test of MBI-005, field (Example 13)
Experimental: as §3

[23] = tested on: Hairy bittercress (Cardamine hirsuta); assay: Post-emergence test of MBI-005, field (Example 13)
Experimental: as §3

[24] = tested on: Late watergrass (Echinochloa phyllopogon); assay: Post-emergence test of MBI-005, field (Example 13)
Experimental: as §3

[25] = tested on: Flexuous bittercress (Cardamine flexuosa); assay: Post-emergence test of MBI-005, field (Example 13)
Experimental: as §3

[26] = tested on: Common chickweed (Stellaria media); assay: Post-emergence test of MBI-005, field (Example 13)
Experimental: as §3

[27] = tested on: Bermuda buttercup (Oxalis pes-caprae); assay: Post-emergence test of MBI-005, field (Example 13)
Experimental: as §3

[28] = tested on: Shepherd's purse (Capsella bursa-pastoris); assay: Post-emergence test of MBI-005, field (Example 13)
Experimental: as §3

[29] = tested on: Common yellow oxalis (Oxalis pes-caprae); assay: Post-emergence test of MBI-005, field (Example 13)
Experimental: as §3

[30] = tested on: Clover (Trifolium hirtum); assay: Post-emergence test of MBI-005, field (Example 13)
Experimental: as §3

[31] = tested on: Velvetleaf (Abutilon theophrasti); assay: Post-emergence test of MBI-005, field (Example 13)
Experimental: as §3

[32] = tested on: Smallflower (Cyperus difformis); assay: Post-emergence test of MBI-005, field (Example 13); settings: Smallflower (sedge)
Experimental: as §3

[33] = tested on: Nightshade, Eastern Black (Solanum ptychanthum); assay: Post-emergence test of MBI-005, field (Example 13)
Experimental: as §3

[34] = tested on: Ricefield bullrush (Scirpus mucronatus); assay: Post-emergence test of MBI-005, field (Example 13)
Experimental: as §3

Eclipta (Eclipta alba) = assay: Post-emergence test of MBI-005, field (Example 13)
Experimental: as §3

## CN1C(=O)[C@](O)(Cc2cccc(O)c2)N(C)C(=O)[C@@H]1Cc1c[nH]c2cccc([N+](=O)[O-])c12 [thaxtomin A]
[1]
  Rating at 0.1 mg/ml (Reduction of Germination): ++++ (95-100)
[2]
  Rating at 0.1 mg/ml (Reduction of Germination): ++++ (95-100)
[3]
  Rating at 0.1 mg/ml (Reduction of Germination): ++++ (95-100)
[4]
  Rating at 0.1 mg/ml (Reduction of Germination): ++++ (95-100)
[5]
  Rating at 0.1 mg/ml (Reduction of Germination): ++++ (95-100)
[6]
  Rating at 0.1 mg/ml (Reduction of Germination): ++++ (95-100)
[7]
  Rating at 0.1 mg/ml (Reduction of Germination): +++ (85-94)
[8]
  Rating at 0.1 mg/ml (Reduction of Germination): ++++ (95-100)
[9]
  Rating at 0.1 mg/ml (Reduction of Germination): ++++ (95-100)
[10]
  Rating at 0.1 mg/ml (Reduction of Germination): +++ (85-94)
[11]
  Rating at 0.1 mg/ml (Reduction of Germination): ++++ (95-100)
[12]
  Rating at 0.1 mg/ml (Reduction of Germination): ++++ (95-100)
[13]
  Rating at 0.1 mg/ml (Reduction of Germination): ++++ (95-100)
[14]
  Rating at 0.1 mg/ml (Reduction of Germination): ++++ (95-100)
[15]
  Rating at 0.1 mg/ml (Reduction of Germination): ++++ (95-100)
[16]; Thaxtomin 0.25 mg/mL
  Sedge control (%): 95a %
[16]; Thaxtomin 0.5 mg/mL
  Sedge control (%): 100a %
watergrass; Thaxtomin 0.25 mg/mL
  Watergrass control (%): 5d %
watergrass; Thaxtomin 0.5 mg/mL
  Watergrass control (%): 5d %
[17]
  pre-emergence spectrum of activity: broad spectrum activity
[18]
  Rating at 1 mg/ml (Post-Emergence % control): +++ (81-90)
[19]
  Rating at 1 mg/ml (Post-Emergence % control): ++++ (91-100)
Bluegrass (Poa annua)
  Rating at 1 mg/ml (Post-Emergence % control): ++ (51-80)
[20]
  Rating at 1 mg/ml (Post-Emergence % control): ++++ (91-100)
[21]
  Rating at 1 mg/ml (Post-Emergence % control): ++++ (91-100)
[22]
  Rating at 1 mg/ml (Post-Emergence % control): ++ (51-80)
[23]
  Rating at 1 mg/ml (Post-Emergence % control): ++ (51-80)
[24]
  Rating at 1 mg/ml (Post-Emergence % control): +++ (81-90)
[25]
  Rating at 1 mg/ml (Post-Emergence % control): ++ (51-80)
[26]
  Rating at 1 mg/ml (Post-Emergence % control): ++ (51-80)
[27]
  Rating at 1 mg/ml (Post-Emergence % control): ++++ (91-100)
[28]
  Rating at 1 mg/ml (Post-Emergence % control): ++++ (91-100)
[29]
  Rating at 1 mg/ml (Post-Emergence % control): ++++ (91-100)
[30]
  Rating at 1 mg/ml (Post-Emergence % control): ++ (51-80)
[31]
  Rating at 1 mg/ml (Post-Emergence % control): ++ (51-80)
[32]
  Rating at 1 mg/ml (Post-Emergence % control): ++++ (91-100)
[33]
  Rating at 1 mg/ml (Post-Emergence % control): ++ (51-80)
[34]
  Rating at 1 mg/ml (Post-Emergence % control): ++++ (91-100)
Eclipta (Eclipta alba)
  Rating at 1 mg/ml (Post-Emergence % control): ++ (51-80)

— patent US9066516B2, “Uses of thaxtomin and thaxtomin compositions as herbicides” (priority 2008, dated 2015)
